# PubChem BioAssay AID179 (DTP/NCI, 2004)
# “And” between values parts separate entries of the source, which are not always exact repeats. Equal values may be shown once. The source made the active and inactive calls.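 Rule for the calls: active = compounds giving half or more protection of infected cells from virus-caused growth loss, again on retest; inactive = the rest.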 Where a SMILES comes first, the peptide text is derived from it. [ ]: non-standard residue; d: D form. The star is where a group is joined. pGlu = O=C1CC[CH](C(=O)O)N1; Boc = CC(C)(C)OC(=O)*
# System: CEM cells HIV-1 protection, formazan growth assay
# Assay: NCI AIDS Antiviral Assay
# Details: for IC50: measured here: growth of uninfected CEM cells
# Method in brief: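 Protection of CEM cells against HIV-1 was scored from cell growth (soluble formazan) across five concentrations, with parallel uninfected cells. Lack of protection may reflect toxicity.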
Structure (SMILES),EC50,IC50,outcome
CCOC(=O)/C(C#N)=C/c1ccc2c(-c3c(OCC)ccc4cc(/C=C(\C#N)C(=O)OCC)ccc34)c(OCC)ccc2c1,> 200 µM,> 200 µM,
CCC(C)C(NC(=O)C(CCCCN)NC(=O)CNC(=O)C(NC(=O)C(NC(=O)C(NC(=O)C(Cc1ccccc1)NC(=O)C(C)NC(=O)C(CCCNC(=N)N)NC(=O)CNC(=O)C1CCCN1C(=O)CNC(=O)C(CCCNC(=N)N)NC(=O)C(CCC(N)=O)NC(=O)C(NC(=O)C(CCCNC(=N)N)NC(=O)C(NC(=O)C(CO)NC(=O)C(CCCCN)NC(=O)C(CCCNC(=N)N)NC(=O)C(NC(=O)C(CC(N)=O)NC(=O)C(N)CC(N)=O)C(C)O)C(C)CC)C(C)CC)C(C)C)C(C)OC1OC(CO)C(O)C(O)C1NC(C)=O)C(C)CC)C(=O)NCC(N)=O (stereo not given),24.5 µM,50.1 µM,
CNC(=O)c1[nH]cnc1/N=N/N(C)N,> 200 µM,182 µM,
CCCN1CN(c2ccccc2)C2(CCN(CCCC(=O)c3ccc(F)cc3)CC2)C1=O,> 200 µM,3.02 µM,
CC(=O)OCc1nc2ncnc(N)c2[nH]1,> 631 µM,> 631 µM,
COC(=O)c1ccc(CO/N=C(\c2ccccc2)c2ccncc2)cc1,> 200 µM,66.1 µM,
S=C(Nc1ccccc1)Nc1ccccc1SC(/C=C/NNC1=NC(c2ccccc2)C(c2ccccc2)=NN1)c1ccccc1 (stereo not given),> 15.5 µM,> 15.5 µM,
COc1cccc(NC(=O)/C(Cc2nc3ccccc3nc2C)=N/NC(=O)C[n+]2ccccc2)c1,> 95.5 µM,> 95.5 µM,
CC1(C)CC(c2c[nH]c3ccccc23)=CC2=Nc3ccccc3C21O (stereo not given),,,inactive
COC(=O)C1Cc2c(n(Cc3ccccc3)c3ccccc23)C(CCC(=O)O)N1C(C)C (stereo not given),,,inactive
COC(=O)C(Cc1c[nH]c2ccccc12)NC(=O)C(Cc1c[nH]c2ccccc12)NC(=O)C(Cc1c[nH]c2ccccc12)NC(=O)C(Cc1c[nH]c2ccccc12)NC(=O)C(Cc1c[nH]c2ccccc12)NC(=O)C(Cc1c[nH]c2ccccc12)NC(=O)C(Cc1c[nH]c2ccccc12)NC(=O)OC(C)(C)C (stereo not given) (Boc-WWWWWWW-OMe; configuration not given here),> 100 µM,58.9 µM,
CN(CO)c1nc(N(C)CO)nc(N(C)CO)n1,> 26.3 µM,24 µM,
COC(=O)C1=CC(=O)OC1(OO)c1ccccc1 (stereo not given),> 200 µM,45.7 µM,
C=CCC12CC(C)OC1=Nc1ccccc1NC2=O (stereo not given),> 200 µM,> 200 µM,
O=C(CC1C(=O)Nc2ccccc2S1=O)Nc1ccc(Cl)cc1 (stereo not given),,,inactive
O=C(c1ccccc1)C1C(C(=O)c2ccccc2)N1Cc1ccccc1 (stereo not given),> 200 µM,60.3 µM and > 55 µM,
C(=Nc1cnc2ccccc2c1)c1cccnc1,> 1070 µM,195 µM,
Nc1c(-c2nc3ccccc3s2)[n+]([O-])c2ccccc2[n+]1[O-],,,inactive
O=C(Nc1ccc(Cl)cc1)C(=O)Nc1ccc(Cl)cc1,> 200 µM,> 200 µM,
O=C(/C=C/c1ccccc1[N+](=O)[O-])c1ccccc1,> 39.8 µM,6.92 µM,
CC(C)(C)C(=O)OC12/C(=N/O)CCCCCC1c1ccccc12 (stereo not given),> 200 µM,37.2 µM,

Structure (SMILES),EC50,IC50,outcome
O=c1[nH]c2ccccc2nc1/C=C\NC(=S)Nc1cc(Cl)ccc1Cl,> 200 µM,112 µM,
Cc1ccc(-n2cc([Si](C)(C)C)nn2)s1,> 200 µM,123 µM,
NS(=O)(=O)c1ccc(NC(=O)c2cccc3c(=O)c4ccccc4[nH]c23)cc1,,,inactive
COC(=O)C1=C(C(=O)OC)SC(=CC#CC=C2SC(C(=O)OC)=C(C(=O)OC)S2)S1,> 5.62 µM,> 5.62 µM,
CCOC(=O)/C(=C\c1ccc(OCc2ccccc2)c(OC)c1)C(=O)c1ccccc1,> 12.6 µM,> 12.6 µM,
O=C1O[C@@H](c2ccccc2)C[C@@H]1CN1CCOCC1,,,inactive
Cc1ccc(S(=O)(=O)c2c(O)c3ccc(O)c(C)c3oc2=O)cc1,> 200 µM,> 200 µM,
Cn1nc(-c2ccccc2)c2c(/C=C/c3ccc(Cl)cc3)onc2c1=O,> 14.5 µM,> 14.5 µM,
N#C/C(=C\c1c(Cl)cccc1Cl)c1ccccc1,> 50.1 µM,28.8 µM,
CN(C)CCC(=O)c1ccc(Cl)cc1,> 107 µM,27.5 µM,
Cc1nc2[nH]c(=S)[nH]c(=O)c2[nH]c1=O,> 200 µM,> 200 µM,
C=C1CC2C(=O)N(c3ccccc3)C(=O)C2CC1n1[nH]c(=O)n(Cc2ccccc2)c1=O (stereo not given),> 219 µM,> 219 µM,
NC1=NC(c2ccccc2)CC(c2cc(Cl)ccc2O)=N1 (stereo not given),> 200 µM,12.6 µM,
CC(NC(=O)C1CCC(=O)N1)C(=O)N1CCCC1C(N)=O (stereo not drawn) ([pGlu]-Ala-Pro-NH2; configuration not given here),> 200 µM,> 200 µM,
Cn1c(=O)n2n(c1=O)Cc1cccc3cccc(c13)C2,> 200 µM,> 200 µM,
COc1ccc(N=C2C(=Nc3ccc(OC)cc3)N(c3ccccc3)C(=S)N2N=C=C2Sc3ccccc3N2C)cc1,> 200 µM,25.7 µM,
CNP(=O)(NC)NC,> 200 µM,> 200 µM,
CN(C)c1ccc(/C=N/Nc2nc3ccccc3c(=O)n2-c2ccccc2)cc1,> 100 µM,> 100 µM,
O=c1[nH]nc(Cc2ccccc2)n1CCO,,,inactive
C1CC2=C(C1)C1=S(S2)SC2=C1CCC2,,,inactive
CCN(CC)CCNCc1cc(Cl)cc2c1OCOC2,> 200 µM,> 200 µM,

Structure (SMILES),EC50,IC50,outcome
N#CCC(=O)N/N=C1\C(=O)N(c2ccc(Cl)cc2)C(=O)C(=O)C1c1nc2ccccc2o1 (stereo not given),,,inactive
Cc1ccc(NC(=O)CC2Sc3ccccc3NC2=O)c(C)c1 (stereo not given),> 79.4 µM,38.9 µM,
COc1cc2c(c3oc(=O)cc(-c4ccccc4)c13)C(=O)[C@H](C)[C@@H](C)O2,> 200 µM,> 200 µM,
CCOC(=O)CNC(=O)c1cccc2c(Nc3ccc(S(=O)(=O)Nc4cc(C)on4)cc3)c3ccccc3nc12,> 200 µM,12.3 µM,
COc1ccc(C2CC(=O)c3ccccc3O2)cc1OC (stereo not given),> 200 µM,40.7 µM,
COC(=O)C1Cc2c([nH]c3ccccc23)-c2[nH]c3ccccc3c2CC(NC(C)=O)C(=O)NCC(=O)NCC(=O)N1 (stereo not given),> 200 µM,> 200 µM,
CC(C)(C)c1ccc(C2(Br)C(=O)NC(=O)C2=O)cc1 (stereo not given),> 200 µM,> 200 µM,
Cc1cccc(C(O)c2ccccn2)c1O (stereo not given),> 200 µM,> 200 µM,
CNC(=O)OCC1=CC(=O)C(C)=CC1=O,> 60.3 µM,5.5 µM,
COc1ccc(-c2cc(=O)c3ccc(O)cc3o2)cc1,> 83.2 µM,> 83.2 µM,
CCc1nc(N)c2nc(-c3ccc(C#N)cc3)oc2n1,> 100 µM,> 100 µM,
Cc1cc2c(cc1Br)C1(C)CCC(C)C1(C)O2 (stereo not given),> 50.1 µM,> 50.1 µM,
C1=CC2C(C3CN(c4ccccc4)N=C13)C1C3C4C=CC21C=CC43 (stereo not given),> 200 µM,> 200 µM,
COc1cccc(CC2C(=O)N=C(NC(C)=O)N2C)c1OC(C)=O (stereo not given),> 200 µM,151 µM,
CC(=O)OCC1C(C(C)OC(C)=O)CCC2C1CCC1(C)C(OC(C)=O)CCC21 (stereo not given),> 20.4 µM,16.6 µM,
COCC12CCC(OC)C34C5CC6(O)C(OC)C=C(C5C6OC(=O)c5ccccc5)C(C(OC)C13)C4N(C)C2 (stereo not given),,,inactive
CCC(=O)[O-].CCC(=O)[O-].N.N.N.N.[Co+3].[O-][Cl+3]([O-])([O-])[O-],,,inactive
O=P1(O)c2ccccc2CSCc2ccccc21,> 324 µM,> 324 µM,
COc1cc(/C=C/C(=O)CC(=O)/C=C/c2ccc(OC(=O)CCCCC3CCSS3)c(OC)c2)ccc1OC(=O)CCCCC1CCSS1 (stereo not given),> 200 µM,> 200 µM,
CCc1cc[c]([Sb](=[O])([OH])[OH])cc1,,,inactive
O=C(O)C1CC1,,,inactive

Structure (SMILES),EC50,IC50,outcome
NC(CCc1nc(-c2ccc(Cl)cc2)cs1)C(=O)O (stereo not given),,,inactive
COc1ccccc1NC(=O)C1=C(C)NC(C)=C(C(=O)Nc2ccccc2OC)C1c1cccc2ccccc12,> 9.77 µM,> 9.77 µM,
Cc1cc(Cl)cc2c1S/C(=C1\Sc3c(C)cc(Cl)cc3C1=O)C2=O,> 200 µM,> 200 µM,
CCOC(=O)c1c(N)ssc1=S,87.1 µM,158 µM,
O[C@H]1[C@H]2c3cc4c(cc3CN3CCC(C[C@@H]1O)[C@H]23)OCO4 (stereo not given in full),,,inactive
O=C1NC(=S)S/C1=C\c1cccs1,> 60.3 µM,> 60.3 µM,
Cc1ccc(S(=O)(=O)N/N=C2\CC3C4C=CC3C2C4)cc1 (stereo not given),> 200 µM,> 200 µM,
NS(=O)(=O)c1ccc(NC(=O)Nc2cc(C(F)(F)F)ccc2Cl)cc1,> 200 µM,10.2 µM,
CC(=O)OCC1OC(n2c3c(cc(C#N)c2=S)CCCC3)C(OC(C)=O)C(OC(C)=O)C1OC(C)=O (stereo not given),> 200 µM,87.1 µM and > 200 µM,
CC1(C)N/C(=C\[N+](=O)[O-])C(C)(C)N1O,> 200 µM,> 200 µM,
COc1ccc(C2=NC(c3ccccc3)N3C(c4ccccc4)NC(c4ccccc4)C2C3c2ccccc2)cc1 (stereo not given),,,inactive
CN(C)C=Nc1c2c(nc3ccccc13)CCCC2,> 200 µM,> 200 µM,
COc1ccc2nc3cc(Cl)ccc3c(Sc3ccc([N+](=O)[O-])cc3)c2c1,> 4.79 µM,> 4.79 µM,
CC(=O)NC(CCC(=O)c1ccc(Cl)cc1Cl)(C(=O)O)C(=O)O,> 200 µM,> 200 µM,
C[C@@H]1CC(O)C2(O)[C@@]13C[C@@H](OC(=O)[C@@H]3O)[C@](C)(O)[C@@]21COC1=O (stereo not given in full),,,inactive
COc1c(Cl)cc(C(=CCCNC(=O)C[C@H]2CC[C@@]3(C)[C@@H](CC[C@@H]4[C@@H]3CC[C@]3(C)[C@@H](CC(=O)NCCC=C(c5cc(Cl)c(OC)c(C(=O)O)c5)c5cc(Cl)c(OC)c(C(=O)O)c5)CC[C@@H]43)C2)c2cc(Cl)c(OC)c(C(=O)O)c2)cc1C(=O)O,> 200 µM,148 µM,
COc1cccc(NC(=O)/C(CS(=O)(=O)CCC(C(C)=O)C(C)=O)=N\NC(C)(C)C)c1,25.7 µM,550 µM,
Cc1[nH]n(-c2ccccc2)c(=O)c1C=NC(=S)C(N)=S,> 200 µM,56.2 µM,
